Assays:
[1] = test system: collagen-induced arthritis (CIA) mouse model; experiment: Rheumatoid arthritis treatment effect in collagen-induced arthritis (CIA) mouse model; format: in vivo, DBA/1J mouse; settings: intraperitoneal, 3 times a week after second immunization; versus vehicle PBS; similar efficacy to positive control MTX
Description: In order to confirm a rheumatoid arthritis improvement effect of the peptides prepared in Example 1, a rheumatoid arthritis mouse model was prepared with reference to a known literature (Nat Protoc. 2007; 2 (5): 1269-75.).
Specifically, a CIA mouse model is a mouse model most commonly used in a rheumatoid arthritis animal test as an autoimmune disease arthritis model having characteristics similar to human rheumatoid arthritis. In the CIA mouse model, bovine type II collagen (Chondrex, USA) was mixed and emulsified with a Freund's complete adjuvant (Chondrex, USA) at 1:1, and then first immunization was performed by injecting 50 μl of the emulsified collagen solution intradermally into a 6-week-old DBA/1J mouse tail. On 2 weeks after the first immunization, bovine type II collagen was mixed and emulsified with a Freund's incomplete adjuvant (Chondrex, USA) at 1:1, and then second immunization (boosting) was performed by injecting 50 μl of the emulsified collagen solution induced) intradermally into the mouse tail. After the second immunization, each peptide was intraperitoneally administered 3 times a week from the following day to observe a therapeutic effect of the peptides for rheumatoid arthritis.
In order to examine the progression of rheumatoid arthritis according to the peptide treatment of the present invention, the severity of rheumatoid arthritis over time was evaluated and measured by a rheumatoid arthritis progress index.
At this time, the arthritis progress index was evaluated as Points 0 to 4 per leg in accordance with the arthritis progress evaluation criteria by Rossoliniec, etc. in Table 2 below and shown to total Points 0 to 16 (sum of four legs). Thereafter, an average value of the results evaluated by the two observers was calculated to quantify the severity of arthritis.

[2] = test system: Th17 cell differentiation of naive CD4+ T cells; experiment: Th17 cell differentiation inhibitory effect (CD4+IL-17+ T cell population); format: cell-based, mouse; settings: IL-6 20 ng/ml + TGF-beta 5 ng/ml + TCR activation; peptide 10 ng/ml to 1000 ng/ml, 3 days; non-induced 1.2%, induced 3.14%
Description: In order to confirm the efficacy of the synthetic peptides prepared in Example 1 to inhibit Th17 cell differentiation, naive CD4^+ T cells extracted from lymph nodes of the mouse were treated with IL-6 20 ng/ml and TGF-beta 5 ng/ml together with TCR activation to induce differentiation into Th17 cells.
At the same time, three peptides Pep1, Pep6, and Pep8 disclosed in Table 2 of Test Example 1 were treated at a concentration of 10 ng/ml to 1000 ng/ml, respectively. Then, after incubation for 3 days, CD4+IL-17+ T cell population was analyzed.

IL-6 = experiment: Inflammatory cytokine IL-6 reduction effect (IL-6 ELISA, THP-1 derived M1 macrophages); format: cell-based; settings: LPS 10 ng/ml + IFN-gamma 20 ng/ml, peptide 100 ng/ml, 24 hours, similar to positive control MTX
Description: In order to confirm the efficacy of the synthetic peptides prepared in Example 1 to inhibit inflammatory cytokine IL-6 secretion, a THP-1 monocytic cell line was treated with PMA 50 ng/ml for 48 hours to be differentiated into M1 macrophages. After treatment with LPS 10 ng/ml and IFN-gamma 20 ng/ml to the differentiated M1 macrophages, a positive control group MTX or the synthetic peptides of the present invention were co-treated at a concentration of 100 ng/ml, respectively. Thereafter, after incubation for 24 hours, IL-6 ELISA was performed using a cultured sup.

Row | Substance | arthritis improvement (arthritis score, total Points 0 to 16) [1] | ratio of Th17 cells (CD4+IL-17+ T cell population) [2] | IL-6 secretion (ELISA of culture sup) (IL-6)
1 | KDAKDA [Pep4] | efficacy of arthritis improvement was shown | – | –
2 | KDAKDAKDA [Pep8] | efficacy of arthritis improvement was shown | reduced similarly to the group that did not induce differentiation | significantly reduced
3 | KDGKDG [Pep1] | efficacy of arthritis improvement was shown | reduced similarly to the group that did not induce differentiation | –
4 | KDGKDGKDG [Pep5] | – | – | significantly reduced
5 | KEAKEA [Pep3] | – | – | significantly reduced
6 | KEAKEAKEA [Pep7] | efficacy of arthritis improvement was shown | – | significantly reduced
7 | KEGKEG [Pep2] | – | – | significantly reduced
8 | KEGKEGKEG [Pep6] | efficacy of arthritis improvement was shown | reduced similarly to the group that did not induce differentiation | –

From patent US11730788B2, “Use of peptides as therapeutic agent for autoimmune diseases and bone diseases” (KINE SCIENCES CO., LTD., priority 2017, dated 2023)
